# Laboratory results: patent US6566087B1, “Phosphodiesterase 8A” (ICOS Corporation, priority 1997, dated 2003)
# pIC50: −log10 of the molar value. Read-outs that look alike come from different tables or passages of the source.
# Tests used:
# Format in all cases: biochemical
# PDE8A [1] = biological target: T1, PDE8A (Homo sapiens, UniProt Q9Y233); assay: Inhibition of recombinant PDE8A activity (32P-phosphate release from 32P-cAMP); details: for Fold Difference: IC50 for PDE8 versus IC50 for target family; for pIC50: read-out: IC50 for PDE8
# T1 construct: made in house; host or cells: yeast strain BJ2-54 lacking endogenous PDE activity; plasmid W48-2ADH2 (ATCC 98552); crude yeast extract
# T1 sequence (Q9Y233 290-1055 limits assumed): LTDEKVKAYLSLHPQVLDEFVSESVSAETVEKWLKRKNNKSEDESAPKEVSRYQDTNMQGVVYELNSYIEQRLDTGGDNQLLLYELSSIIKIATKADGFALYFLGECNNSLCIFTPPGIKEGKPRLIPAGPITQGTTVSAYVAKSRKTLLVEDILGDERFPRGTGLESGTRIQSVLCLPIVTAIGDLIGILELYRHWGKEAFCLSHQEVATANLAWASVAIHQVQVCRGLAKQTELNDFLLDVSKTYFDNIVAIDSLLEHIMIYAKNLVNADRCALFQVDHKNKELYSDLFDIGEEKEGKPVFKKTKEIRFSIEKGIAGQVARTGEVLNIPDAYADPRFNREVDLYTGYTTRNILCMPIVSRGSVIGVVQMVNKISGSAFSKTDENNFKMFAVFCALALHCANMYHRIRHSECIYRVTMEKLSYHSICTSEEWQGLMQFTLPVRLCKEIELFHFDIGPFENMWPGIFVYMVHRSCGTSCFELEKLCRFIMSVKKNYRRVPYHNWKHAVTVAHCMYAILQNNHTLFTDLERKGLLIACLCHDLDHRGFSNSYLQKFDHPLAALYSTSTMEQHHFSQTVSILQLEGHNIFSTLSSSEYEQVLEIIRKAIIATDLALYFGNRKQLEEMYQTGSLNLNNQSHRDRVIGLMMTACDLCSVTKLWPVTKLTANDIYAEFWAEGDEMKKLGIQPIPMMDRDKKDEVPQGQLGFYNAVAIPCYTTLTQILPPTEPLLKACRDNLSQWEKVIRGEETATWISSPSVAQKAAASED
# Experimental: (§1) Frozen cell pellets (0.06 ml) were thawed and suspended in 0.2 ml lysis buffer containing 100 mM MOPS, pH 8.0, 200 mM NaCl, 2 μM […], 2 mM dithiothreitol, and 10 μg/ml each protease inhibitors pepstatin, leupeptin, and aprotinin. Approximately 0.2 ml of 0.5 mm glass beads were added to the cells which were then lysed with four 30-second cycles of vortexing. The lysate was aspirated and the beads were washed twice with 0.3 ml lysis buffer. The lysate was combined with the washes to generate the yeast extract. In some experiments the lysate was fractionated by centrifugation at 105,000×g for thirty minutes.
# (§2) PDE activity was assayed by detection of ^32P-phosphate released from ^32P-cAMP or ^32P-cGMP as described previously [Loughney et al., J. Biol. Chem. 271:796-806 (1996)]. The yeast extract was diluted in 0.5×lysis buffer also containing 0.5 mg/ml bovine serum albumin. Twenty μl of the yeast extract, or diluted yeast extract, was assayed in a 100 μl reaction volume which included an additional 50 mM Tris-HCl (pH 8.0), 5 mM MgCl2 1 μM Zn SO2, and 0.1 mg/ml bovine serum albumin. Protein concentration was assayed by the method of Bradford.
# PDE3 = assay: IC50 of isozyme-selective inhibitor for its target family PDE3; details: Target PDE Family PDE3
# PDE5 = PDE5 (Homo sapiens, UniProt O76074); assay: IC50 of isozyme-selective inhibitor for its target family PDE5; details: Target PDE Family PDE5
# PDE2 = PDE2 (Homo sapiens, UniProt O00408); assay: IC50 of isozyme-selective inhibitor for its target family PDE2; details: Target PDE Family PDE2
# PDE2, sequence (O00408 whole entry): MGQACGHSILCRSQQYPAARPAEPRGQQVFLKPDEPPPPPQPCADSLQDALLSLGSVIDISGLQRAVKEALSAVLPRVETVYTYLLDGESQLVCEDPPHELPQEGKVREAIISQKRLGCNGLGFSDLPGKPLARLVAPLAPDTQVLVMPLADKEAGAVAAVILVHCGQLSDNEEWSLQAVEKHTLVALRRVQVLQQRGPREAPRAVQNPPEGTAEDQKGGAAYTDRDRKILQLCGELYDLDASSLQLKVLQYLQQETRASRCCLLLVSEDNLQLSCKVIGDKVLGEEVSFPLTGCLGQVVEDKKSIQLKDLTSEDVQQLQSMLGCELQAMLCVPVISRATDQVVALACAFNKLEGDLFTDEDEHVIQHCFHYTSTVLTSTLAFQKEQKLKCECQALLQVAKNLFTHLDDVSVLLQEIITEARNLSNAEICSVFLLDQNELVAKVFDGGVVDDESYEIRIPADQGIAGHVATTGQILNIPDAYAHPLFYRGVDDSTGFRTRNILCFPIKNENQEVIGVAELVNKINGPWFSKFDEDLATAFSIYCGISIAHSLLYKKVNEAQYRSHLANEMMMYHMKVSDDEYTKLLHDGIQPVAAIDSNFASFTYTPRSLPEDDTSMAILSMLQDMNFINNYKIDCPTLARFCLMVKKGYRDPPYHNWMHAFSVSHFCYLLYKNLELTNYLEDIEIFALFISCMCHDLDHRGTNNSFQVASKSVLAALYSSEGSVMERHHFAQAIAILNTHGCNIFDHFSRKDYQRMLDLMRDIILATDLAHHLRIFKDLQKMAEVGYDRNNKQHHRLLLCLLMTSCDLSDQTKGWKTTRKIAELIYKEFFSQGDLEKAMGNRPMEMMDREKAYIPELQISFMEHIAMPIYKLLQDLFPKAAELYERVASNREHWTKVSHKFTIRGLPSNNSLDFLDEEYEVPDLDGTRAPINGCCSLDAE
# [2] = tested on: known human PDEs (Non-selective); assay: IC50 of non-selective inhibitor for known PDEs; details: read-out: IC50 for Target Family
# PDE8A [3] = biological target: T1, PDE8A; assay: Kinetic analysis of PDE8A hydrolysis of cyclic nucleotide substrates in yeast extract; details: estimated, substrate of PDE8A, yeast lysate
# Experimental: as §1
# as §2, with “The” for “PDE activity was assayed by detection of ^32P-phosphate released from ^32P-cAMP or ^32P-cGMP as described previously [Loughney et al., J. Biol. Chem. 271:796-806 (1996)]. The”
# [4] = cAMP concentration of 60 nM, low Km form only, yeast extract
Compound,Fold Difference (PDE8A [1]),pIC50 (PDE8A [1]; [4]),pIC50 (PDE8A [1]),further results
CN(C(=O)CCCOc1ccc2[nH]c(=O)ccc2c1)C1CCCCC1 [Cilostamide],750,,4.92,pIC50 (PDE3): 7.70
"CCCCCCC(C(C)O)n1cnc2c(N)ncnc21 (stereo not drawn) [EHNA, erythro-9-(2-hydroxy-3-nonyl)adenine]",31,,4.19,pIC50 (PDE2): 5.70
Nc1nc2c(ncn2[C@@H]2O[C@@H]3COP(=O)(O)O[C@H]3[C@H]2O)c(=O)[nH]1 [cGMP],,,,"Km (PDE8A [3]; read-out: Km, high Km form): 300 µM; Km (PDE8A [3]; read-out: Km, low Km form): 3 µM"

# The next lines start with results.
Fold Difference (PDE8A [1]),pIC50 (PDE8A [1]; [4]),Compound,pIC50 (PDE8A [1]),further results
66,5.96,CCCOc1ccc(NS(C)(=O)=O)cc1-c1nc2c(c(C)nn2C)c(=O)[nH]1 [DMPPO],,pIC50 (PDE5): 7.80
0.12-4.6,5.34,"CC(C)Cn1c(=O)n(C)c(=O)c2[nH]cnc21 [IBMX, isomethyl butyl xanthine]",,pIC50 [2]: 4.40 to 6.00
